Our source for the MIC values is ChEMBL document CHEMBL3046479, “Preparation and antimicrobial activity evaluation of some new bi- and triheterocyclic azoles” (2013).

Common to all, as to assay type: functional
For test [1], the system named is Yersinia pseudotuberculosis. Kind of test: Antimicrobial activity against Yersinia pseudotuberculosis ATCC 911 assessed as growth inhibition after 18-24 hr by broth double microdilution method. Background: Broth dilution looks for growth in wells or tubes with falling amounts of substance.
A further test deals with Escherichia coli. Briefly: Antimicrobial activity against Escherichia coli ATCC 35218 assessed as growth inhibition after 18-24 hr by broth double microdilution method.
For the next test, the system named is Saccharomyces cerevisiae. Kind of test: Antimicrobial activity against Saccharomyces cerevisiae RSKK 251 assessed as growth inhibition after 18-24 hr by broth double microdilution method.
In a further test the test system is Candida albicans. Kind of test: Antimicrobial activity against Candida albicans ATCC 60193 assessed as growth inhibition after 18-24 hr by broth double microdilution method.
In a further test the test system is Staphylococcus aureus. Kind of test: Antimicrobial activity against Staphylococcus aureus ATCC 25923 assessed as growth inhibition after 18-24 hr by broth double microdilution method.
In the next test the test system is Enterococcus faecalis. Kind of test: Antimicrobial activity against Enterococcus faecalis ATCC 29212 assessed as growth inhibition after 18-24 hr by broth double microdilution method.
For another test, the system named is Pseudomonas aeruginosa. Kind of test: Antimicrobial activity against Pseudomonas aeruginosa ATCC 10145 assessed as growth inhibition after 18-24 hr by broth double microdilution method.
A further test has as its system Listeria monocytogenes. Kind of test: Antimicrobial activity against Listeria monocytogenes ATCC 43251 assessed as growth inhibition after 18-24 hr by broth double microdilution method.
The subject of test [2] is Mycolicibacterium smegmatis. Kind of test: Antimicrobial activity against Mycobacterium smegmatis ATCC 607 assessed as growth inhibition after 48-72 hr by broth double microdilution method.
A further test concerns Bacillus cereus. Kind of test: Antimicrobial activity against Bacillus cereus 709 Roma assessed as growth inhibition after 18-24 hr by broth double microdilution method.

≈ marks a conversion by molar mass, not a printed value. Calls of active or inactive are those of the source. No cut-off for these calls is given here.

As a reminder, the MIC is the least concentration at which growth counts as inhibited. For `Cc1nn(-c2ccc(NC(=S)NCc3ccccc3)cc2F)c(=O)n1CCCn1ccnc1`, the MIC entry (in test [1]; in the test on Escherichia coli; in the test with Staphylococcus aureus; with Enterococcus faecalis; in the test on Pseudomonas aeruginosa; in the test with Listeria monocytogenes) was “inactive” throughout. The MIC in the test on Saccharomyces cerevisiae came to 500 µg/mL (≈ 1070 µM); in the test on Candida albicans, 500 µg/mL (≈ 1070 µM); in [2], 250 µg/mL (≈ 537 µM).
Regarding `Cc1nn(-c2ccc(/N=C/c3ccc(Br)cc3)cc2F)c(=O)n1CCCn1ccnc1`, the MIC entry (in test [1]; in the test on Escherichia coli; in the test with Saccharomyces cerevisiae; in the test on Candida albicans; in the test on Staphylococcus aureus; in the test with Enterococcus faecalis) was “inactive” in each case. For the same compound, the MIC result in the test with Bacillus cereus, in the test with Pseudomonas aeruginosa and in the test with Listeria monocytogenes was “inactive” throughout. Besides, the MIC in test [2] was 0.24 µg/mL (≈ 0.497 µM).
For `Cc1nn(CNCc2ccco2)c(=O)n1CCCn1ccnc1`, the MIC result (in test [1]; in the test with Escherichia coli; in the test on Saccharomyces cerevisiae; with Staphylococcus aureus; in the test with Enterococcus faecalis; in the test with Pseudomonas aeruginosa) was “inactive” throughout. In the test on Listeria monocytogenes, the MIC entry is “inactive”. Also, the values for the MIC (in the test on Candida albicans; in the test with Bacillus cereus; in test [2]) were 500 µg/mL (≈ 1580 µM), 125 µg/mL (≈ 395 µM) and 125 µg/mL (≈ 395 µM), respectively.
As for `CN[C@@H]1[C@H](O[C@H]2[C@H](O[C@H]3[C@H](O)[C@@H](O)[C@H](N=C(N)N)[C@@H](O)[C@@H]3N=C(N)N)O[C@@H](C)[C@]2(O)C=O)O[C@@H](CO)[C@H](O)[C@H]1O` [STREPTOMYCIN], the MIC in test [2] came to 4 µg/mL (≈ 6.88 µM).
For `Cc1nn(CC(=O)N/N=C2\SCC(=O)N2c2ccccc2)c(=O)n1CCCn1ccnc1`, the MIC result (in test [1]; in the test on Escherichia coli; with Saccharomyces cerevisiae; in the test with Candida albicans; with Staphylococcus aureus; with Enterococcus faecalis) was “inactive” in each case. The MIC entry with Bacillus cereus, with Pseudomonas aeruginosa and with Listeria monocytogenes was “inactive” in each case. Besides, the MIC in test [2] came out at 62.5 µg/mL (≈ 138 µM).
For the compound `CCOC(=O)Cn1nc(C)n(/N=C/c2ccncc2)c1=O`, the MIC result (in test [1]; in the test with Escherichia coli; with Saccharomyces cerevisiae; in the test with Staphylococcus aureus; in the test with Enterococcus faecalis; with Bacillus cereus) was “inactive” throughout. Besides, the MIC entry (in the test with Pseudomonas aeruginosa; in the test with Listeria monocytogenes; in test [2]) was “inactive” each time. In addition, the MIC in the test with Candida albicans was found to be 250 µg/mL (≈ 864 µM).
For `Cc1n[nH]c(=O)n1CCCn1ccnc1`, the MIC result (in test [1]; in the test with Escherichia coli; in the test on Staphylococcus aureus; in the test with Enterococcus faecalis; in the test with Pseudomonas aeruginosa; with Listeria monocytogenes) was “inactive” each time. For the same compound, the minimum inhibitory concentration (MIC) was determined as 1000 µg/mL (≈ 4830 µM) in the test on Saccharomyces cerevisiae, 500 µg/mL (≈ 2410 µM) with Candida albicans and 125 µg/mL (≈ 603 µM) in [2].
Consider `Cc1nn(-c2ccc(N)cc2F)c(=O)n1CCCn1ccnc1`, for which the MIC result (in test [1]; with Escherichia coli; in the test on Staphylococcus aureus; in the test with Enterococcus faecalis; with Bacillus cereus; in the test on Pseudomonas aeruginosa) was “inactive” each time. In addition, the MIC entry with Listeria monocytogenes is “inactive”. Also, the MIC with Saccharomyces cerevisiae was 62.5 µg/mL (≈ 198 µM); in the test with Candida albicans it was 250 µg/mL (≈ 790 µM); in test [2], 31.3 µg/mL (≈ 98.9 µM).
As for `CC1(C)S[C@@H]2[C@H](NC(=O)[C@H](N)c3ccccc3)C(=O)N2[C@H]1C(=O)O` [AMPICILLIN], the MIC in test [1] is 32 µg/mL (≈ 91.6 µM); in the test on Staphylococcus aureus it was 2 µg/mL (≈ 5.72 µM); in the test with Enterococcus faecalis it was 2 µg/mL (≈ 5.72 µM); in the test on Bacillus cereus it was under 1 µg/mL; in the test with Pseudomonas aeruginosa it was over 128 µg/mL; in the test with Listeria monocytogenes it was 8 µg/mL (≈ 22.9 µM).
`Cc1nn(CN2CCOCC2)c(=O)n1CCCn1ccnc1`: the MIC amounted to 0.48 µg/mL (≈ 1.57 µM) in [1]; 0.97 µg/mL (≈ 3.17 µM) in the test on Escherichia coli; 7.81 µg/mL (≈ 25.5 µM) with Saccharomyces cerevisiae; 31.2 µg/mL (≈ 102 µM) in the test on Candida albicans; 0.48 µg/mL (≈ 1.57 µM) in the test on Staphylococcus aureus; 0.97 µg/mL (≈ 3.17 µM) in the test with Enterococcus faecalis. In addition, the MIC with Bacillus cereus came to 0.24 µg/mL (≈ 0.783 µM); in the test on Pseudomonas aeruginosa it was 0.48 µg/mL (≈ 1.57 µM); in the test on Listeria monocytogenes, 0.24 µg/mL (≈ 0.783 µM); in test [2], 15.6 µg/mL (≈ 50.9 µM).
Regarding `Cc1nn(-c2ccc(/N=C/c3c(Cl)cccc3Cl)cc2F)c(=O)n1CCCn1ccnc1`, the MIC result (in test [1]; in the test on Saccharomyces cerevisiae; in the test on Staphylococcus aureus; with Enterococcus faecalis; in the test with Bacillus cereus; with Pseudomonas aeruginosa) was “inactive” in each case. In the test on Listeria monocytogenes, the MIC entry is “inactive”. Further, the MIC in the test with Candida albicans stood at 250 µg/mL (≈ 528 µM); in [2], 3.9 µg/mL (≈ 8.24 µM).
Consider `Cc1nn(CC(=O)N/N=C/c2ccccc2O)c(=O)n1/N=C/c1ccncc1`, for which the MIC result (in [1]; in the test on Escherichia coli; in the test with Saccharomyces cerevisiae; in the test with Staphylococcus aureus; in the test on Enterococcus faecalis; with Bacillus cereus) was “inactive” each time. For the same compound, the MIC entry (with Pseudomonas aeruginosa; in the test with Listeria monocytogenes; in [2]) was “inactive” in each case. Moreover, the MIC with Candida albicans came out at 250 µg/mL (≈ 659 µM).
Turning to `OC(Cn1cncn1)(Cn1cncn1)c1ccc(F)cc1F` [FLUCONAZOLE], the MIC in the test with Saccharomyces cerevisiae and in the test on Candida albicans was under 8 µg/mL each time.
As to `CCOC(=O)Cn1nc(C)n(CCCn2ccnc2)c1=O`, the MIC result with Escherichia coli, in the test on Saccharomyces cerevisiae, in the test with Staphylococcus aureus, in the test with Enterococcus faecalis, with Bacillus cereus and with Pseudomonas aeruginosa was “inactive” in each case. Also, the MIC entry (in the test on Listeria monocytogenes; in test [2]) was “inactive” throughout. Besides, the MIC with Candida albicans was 250 µg/mL (≈ 852 µM).
Regarding `Cc1nn(CC(=O)NNC(=S)Nc2ccccc2)c(=O)n1/N=C/c1ccncc1`, the MIC entry (in test [1]; in the test on Escherichia coli; with Saccharomyces cerevisiae; in the test on Candida albicans; in the test on Staphylococcus aureus; with Enterococcus faecalis) was “inactive” in each case. In addition, the MIC result (in the test on Bacillus cereus; with Pseudomonas aeruginosa; with Listeria monocytogenes; in test [2]) was “inactive” each time.
On to `Cc1nn(CC(=O)N/N=c2\sc(-c3ccc(Cl)cc3)cn2-c2ccccc2)c(=O)n1CCCn1ccnc1`, for which the MIC entry (in test [1]; with Escherichia coli; in the test on Staphylococcus aureus; with Enterococcus faecalis; in the test on Pseudomonas aeruginosa; in the test on Listeria monocytogenes) was “inactive” in each case. Also, the MIC in the test on Saccharomyces cerevisiae is 1000 µg/mL (≈ 1820 µM); with Candida albicans, 250 µg/mL (≈ 455 µM); in test [2], 39.9 µg/mL (≈ 72.7 µM).
With `Cc1nn(CNCCN2CCNCC2)c(=O)n1CCCn1ccnc1`, the MIC was 62.5 µg/mL (≈ 179 µM) in [1]; 1.2 µg/mL (≈ 3.44 µM) in the test on Escherichia coli; 125 µg/mL (≈ 359 µM) with Candida albicans; 125 µg/mL (≈ 359 µM) in the test with Staphylococcus aureus; 500 µg/mL (≈ 1430 µM) in test [2]. The MIC entry in the test on Enterococcus faecalis, in the test on Bacillus cereus, with Pseudomonas aeruginosa and with Listeria monocytogenes was “inactive” throughout.
